# Where two headings read alike, the source gives them in different places.
# What was measured:
# [1] = Adverse reaction assessment in test cats (body weight, behavior, coat gloss); type: in vivo; conditions: all tested cats, i.v. 1 mg/kg BW and p.o. 0.2–2 mg/kg BW, single dose
# Experimental: In this study, a parallel trial design was employed, 42 adult domestic cats (21 males and 21 females), aged 1 to 2 years and weighing 2.5 ± 0.25 kg. Cats were grouped by random number, with half male and female in each group, and all cats were determined to be systemically healthy during an initial screening visit 1 week prior to the experiment. They were acclimatized to the laboratory environment for 7 days before the study commenced. During this period, they were kept in solitary cages with free access to water. Cats in the fasting group were deprived of food for 12 h prior to and 2 h following drug administration, while those in the feeding group were fed twice a day. Food and water sources were consistent throughout the trail. During and at the end of the experiment, we systematically assessed the adverse reactions by recording parameters such as body weight, behavior, and coat gloss in all test cats both before and after the trial. These observations were conducted to evaluate whether any adverse reactions occurred. All procedures were reviewed and approved by the Institutional Animal Care and Use Committee of China Agricultural University (11305-23-E-002).
# [2] = cat, in vivo
# Experimental: Based on the dose administered in dogs, the selection of dosages for evaluating KPT-335 in cats was calculated using the Km factor, which adjusts drug doses across species based on body surface area (BSA) ([16]). […] For oral (p.o.) administration, single doses of 1 mg/kg BW and 2 mg/kg BW were tested across two groups. Additionally, an oral capsule group was administered at 0.2 mg/kg BW. […] The maximum safe dosage for dogs was determined to be 1.75 mg/kg BW, based on dosage conversion, the maximum safe dosage for cats was determined to be 2.33 mg/kg BW. Thus, we categorized the dosages as follows: 2 mg/kg BW was designated as the oral high-dose group, 1 mg/kg BW as the oral medium-dose group, and 0.2 mg/kg BW (1/10 of the recommended dose) as the oral low-dose group. These doses were determined based on the maximum safe dose in dogs and the solubility limitations of the drug. The smallest commercially available tablet contained 2.5 mg of KPT-335 and could not be divided, which meant that only whole tablets could be administered. Consequently, the 0.2 mg/kg BW dose could not be accurately achieved and was excluded from the tablet group trials. Only the 1 mg/kg BW and 2 mg/kg BW doses were included in the tablet groups. […]
# [3] = cited from earlier work
# [4] = dogs, orally 1.25 mg/kg BW (n = 4) ref 13
# [5] = dogs, orally 1.5 mg/kg BW (n = 4) ref 13
# [6] = healthy dogs, phase I study, 1.5 mg/kg BW ref 9
smiles,measurement,setting,value
O=C(/C=C\n1cnc(-c2cc(C(F)(F)F)cc(C(F)(F)F)c2)n1)NNc1ccccn1 [KPT-335],adverse reactions,[1],no adverse reactions
same,maximum safe dosage,[2],2.33 mg/kg BW
same,AUClast,"[3]; dogs, 1.5 mg/kg BW ref 9, 13","1800–2,300 h·ng/mL"
same,Cmax,"[3]; dogs, 1.5 mg/kg BW ref 9, 13",250 to 310 ng/mL
same,half-life,"[3]; dogs, 1.5 mg/kg BW ref 9, 13",approximately 4 h
same,mean AUC,[3]; [4],1576.6 ng·h/mL
same,mean Cmax,[3]; [4],244.8 ng/mL
same,mean AUC,[3]; [5],2346.8 ng·h/mL
same,mean Cmax,[3]; [5],312 ng/mL
same,AUClast,[3]; [6],1760 ± 223 ng·h/mL
same,Cmax,[3]; [6],253 ± 88.3 ng/mL
same,T1/2,[3]; [6],3.88 ± 2.71 h
